Where two headings read alike, the source gives them in different places.
Experiments:
[1] = system: genes specific for sensitization (BRAK, CTSS, DAPK2, FABP4, HSP27, IL18, HSP90, IL1R2, TPSAB1, CXCR1, DEFB1, DHFR, EHF, IVL, KRT4, MELANA, NGAL, PDZK1IP1, PI3 …); experiment: Expression of the other (non-ARE) sensitization-specific genes in EPISKIN reconstructed skin (quantitative RT-PCR); assay type: cell-based, human; conditions: for BRAK expression / CTSS expression / CXCR1 expression / DAPK2 expression / DEFB1 expression / DHFR expression / EHF expression / FABP4 expression / HSP27 expression / HSP90 expression / IL18 expression / IVL expression / KRT4 expression / MELANA expression / NGAL expression / P13 expression / PDZK1iP1 expression / SERPINB3 expression: compared to the control;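 on CTSS NUMBER OF GENES grade: grade scored against expression in the control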;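 on CXCR1 NUMBER OF GENES grade: grade scored against expression in the control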;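 on DAPK2 NUMBER OF GENES grade: grade scored against expression in the control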
[2] = system: ARE gene family (AKR1B10, AKR1C1, AKR1C2, CYP1B1, FTH1P, FTL, G6PD, GCLM, NQO2, SLC7A11, TXNRD1, UGT1A1, UGT1A9, YWHAZ, CD36, CYP1A1, GCLC, HMOX1, NQO1, PSME2 …); conditions: human, 6 h

Compound: CC(O)C(=O)O (stereo not drawn) [Lactic acid (cys pos), Lactic acid]
- BRAK NUMBER OF GENES grade ([1]; 1%): 0 (if this expression is lower, the grade is 0)
- CTSS NUMBER OF GENES grade ([1]; 1%): 0 (if this expression is lower, the grade is 0)
- CXCR1 NUMBER OF GENES grade ([1]; 1%): 0 (if this expression is lower, the grade is 0)
- DAPK2 NUMBER OF GENES grade ([1]; 1%): 0 (if this expression is lower, the grade is 0)
- DEFB1 NUMBER OF GENES grade ([1]; 1%): 0 (if this expression is lower, the grade is 0)
- DHFR NUMBER OF GENES grade ([1]; 1%): 0 (if this expression is lower, the grade is 0)
- EHF NUMBER OF GENES grade ([1]; 1%): 0 (if this expression is lower, the grade is 0)
- FABP4 NUMBER OF GENES grade ([1]; 1%): 0 (if this expression is lower, the grade is 0)
- HSP27 NUMBER OF GENES grade ([1]; 1%): 0 (if this expression is lower, the grade is 0)
- HSP90 NUMBER OF GENES grade ([1]; 1%): 0 (if this expression is lower, the grade is 0)
- IL18 NUMBER OF GENES grade ([1]; 1%): 0 (if this expression is lower, the grade is 0)
- IVL NUMBER OF GENES grade ([1]; 1%): 0 (if this expression is lower, the grade is 0)
- KRT4 NUMBER OF GENES grade ([1]; 1%): 0 (if this expression is lower, the grade is 0)
- MELANA NUMBER OF GENES grade ([1]; 1%): 0 (if this expression is lower, the grade is 0)
- NGAL NUMBER OF GENES grade ([1]; 1%): 0 (if this expression is lower, the grade is 0)
- P13 NUMBER OF GENES grade ([1]; 1%): 0 (if this expression is lower, the grade is 0)
- PDZK1iP1 NUMBER OF GENES grade ([1]; 1%): 0 (if this expression is lower, the grade is 0)
- SERPINB3 NUMBER OF GENES grade ([1]; 1%): 0 (if this expression is lower, the grade is 0)
- TOTAL SENS (number of genes) ([1]; 1%): 0
- BRAK expression ([1]; 1%): 0.8
- CTSS expression ([1]; 1%): 1.0
- CXCR1 expression ([1]; 1%): 0.7
- DAPK2 expression ([1]; 1%): 1.2
- DEFB1 expression ([1]; 1%): 0.9
- DHFR expression ([1]; 1%): 0.9
- EHF expression ([1]; 1%): 0.9
- FABP4 expression ([1]; 1%): 0.7
- HSP27 expression ([1]; 1%): 1.0
- HSP90 expression ([1]; 1%): 1.0
- IL18 expression ([1]; 1%): 0.9
- IVL expression ([1]; 1%): 1.0
- KRT4 expression ([1]; 1%): 0.9
- MELANA expression ([1]; 1%): 0.7
- NGAL expression ([1]; 1%): 0.9
- P13 expression ([1]; 1%): 0.8
- PDZK1iP1 expression ([1]; 1%): 1.0
- SERPINB3 expression ([1]; 1%): 0.9
- BRAK NUMBER OF GENES grade ([1]; 10%): 0 (if this expression is lower, the grade is 0)
- CTSS NUMBER OF GENES grade ([1]; 10%): 0 (if this expression is lower, the grade is 0)
- CXCR1 NUMBER OF GENES grade ([1]; 10%): 0 (if this expression is lower, the grade is 0)
- DAPK2 NUMBER OF GENES grade ([1]; 10%): 0 (if this expression is lower, the grade is 0)
- DEFB1 NUMBER OF GENES grade ([1]; 10%): 0 (if this expression is lower, the grade is 0)
- DHFR NUMBER OF GENES grade ([1]; 10%): 0 (if this expression is lower, the grade is 0)
- EHF NUMBER OF GENES grade ([1]; 10%): 0 (if this expression is lower, the grade is 0)
- FABP4 NUMBER OF GENES grade ([1]; 10%): 0 (if this expression is lower, the grade is 0)
- HSP27 NUMBER OF GENES grade ([1]; 10%): 0 (if this expression is lower, the grade is 0)
- HSP90 NUMBER OF GENES grade ([1]; 10%): 0 (if this expression is lower, the grade is 0)
- IL18 NUMBER OF GENES grade ([1]; 10%): 0 (if this expression is lower, the grade is 0)
- IVL NUMBER OF GENES grade ([1]; 10%): 0 (if this expression is lower, the grade is 0)
- KRT4 NUMBER OF GENES grade ([1]; 10%): 0 (if this expression is lower, the grade is 0)
- MELANA NUMBER OF GENES grade ([1]; 10%): 0 (if this expression is lower, the grade is 0)
- NGAL NUMBER OF GENES grade ([1]; 10%): 0 (if this expression is lower, the grade is 0)
- P13 NUMBER OF GENES grade ([1]; 10%): 0 (if this expression is lower, the grade is 0)
- PDZK1iP1 NUMBER OF GENES grade ([1]; 10%): 0 (if this expression is lower, the grade is 0)
- SERPINB3 NUMBER OF GENES grade ([1]; 10%): 0 (if this expression is lower, the grade is 0)
- TOTAL SENS (number of genes) ([1]; 10%): 0
- BRAK expression ([1]; 10%): 1.0
- CTSS expression ([1]; 10%): 1.1
- CXCR1 expression ([1]; 10%): 0.7
- DAPK2 expression ([1]; 10%): 1.1
- DEFB1 expression ([1]; 10%): 1.0
- DHFR expression ([1]; 10%): 1.0
- EHF expression ([1]; 10%): 0.9
- FABP4 expression ([1]; 10%): 0.9
- HSP27 expression ([1]; 10%): 0.9
- HSP90 expression ([1]; 10%): 0.9
- IL18 expression ([1]; 10%): 1.0
- IVL expression ([1]; 10%): 0.9
- KRT4 expression ([1]; 10%): 0.8
- MELANA expression ([1]; 10%): 0.8
- NGAL expression ([1]; 10%): 1.0
- P13 expression ([1]; 10%): 0.8
- PDZK1iP1 expression ([1]; 10%): 1.0
- SERPINB3 expression ([1]; 10%): 1.1
- BRAK NUMBER OF GENES grade ([1]; 50%): 0 (if this expression is lower, the grade is 0)
- CTSS NUMBER OF GENES grade ([1]; 50%): 1 (If the expression is greater than 1.3 compared to the control, a grade of 11s given)
- CXCR1 NUMBER OF GENES grade ([1]; 50%): 0 (if this expression is lower, the grade is 0)
- DAPK2 NUMBER OF GENES grade ([1]; 50%): 0 (if this expression is lower, the grade is 0)
- DEFB1 NUMBER OF GENES grade ([1]; 50%): 0 (if this expression is lower, the grade is 0)
- DHFR NUMBER OF GENES grade ([1]; 50%): 0 (if this expression is lower, the grade is 0)
- EHF NUMBER OF GENES grade ([1]; 50%): 0 (if this expression is lower, the grade is 0)
- FABP4 NUMBER OF GENES grade ([1]; 50%): 0 (if this expression is lower, the grade is 0)
- HSP27 NUMBER OF GENES grade ([1]; 50%): 0 (if this expression is lower, the grade is 0)
- HSP90 NUMBER OF GENES grade ([1]; 50%): 0 (if this expression is lower, the grade is 0)
- IL18 NUMBER OF GENES grade ([1]; 50%): 0 (if this expression is lower, the grade is 0)
- IVL NUMBER OF GENES grade ([1]; 50%): 0 (if this expression is lower, the grade is 0)
- KRT4 NUMBER OF GENES grade ([1]; 50%): 0 (if this expression is lower, the grade is 0)
- MELANA NUMBER OF GENES grade ([1]; 50%): 0 (if this expression is lower, the grade is 0)
- NGAL NUMBER OF GENES grade ([1]; 50%): 0 (if this expression is lower, the grade is 0)
- P13 NUMBER OF GENES grade ([1]; 50%): 0 (if this expression is lower, the grade is 0)
- PDZK1iP1 NUMBER OF GENES grade ([1]; 50%): 0 (if this expression is lower, the grade is 0)
- SERPINB3 NUMBER OF GENES grade ([1]; 50%): 0 (if this expression is lower, the grade is 0)
- TOTAL SENS (number of genes) ([1]; 50%): 1
- BRAK expression ([1]; 50%): 0.7
- CTSS expression ([1]; 50%): 1.4
- CXCR1 expression ([1]; 50%): 0.8
- DAPK2 expression ([1]; 50%): 1.1
- DEFB1 expression ([1]; 50%): 1.1
- DHFR expression ([1]; 50%): 0.9
- EHF expression ([1]; 50%): 0.9
- FABP4 expression ([1]; 50%): 0.8
- HSP27 expression ([1]; 50%): 0.8
- HSP90 expression ([1]; 50%): 0.9
- IL18 expression ([1]; 50%): 0.8
- IVL expression ([1]; 50%): 0.9
- KRT4 expression ([1]; 50%): 0.8
- MELANA expression ([1]; 50%): 0.6
- NGAL expression ([1]; 50%): 1.0
- P13 expression ([1]; 50%): 0.9
- PDZK1iP1 expression ([1]; 50%): 1.0
- SERPINB3 expression ([1]; 50%): 1.2
- CD36 expression ([2]; 1 %): 1.1
- S100A8 expression ([2]; 1 %): 0.8
- CD36 expression ([2]; 10 %): 1.1
- S100A8 expression ([2]; 10 %): 1.0
- CD36 expression ([2]; 50 %): 0.9
- S100A8 expression ([2]; 50 %): 1.1
